Tested on: human CD34+ hematopoietic stem cells
Assay: Ex vivo expansion of CD34+ cells in liquid culture, flow cytometric immunophenotyping
Type: cell-based
Protocol: Mean fluorescence intensity (MFI) served as a measure of AChE-R content in analyzed cells. When multiplied by the percent fractions of AChE-R-positive cells, the MFI values reflected the total content of AChE-R in the analyzed blood cell samples. Myeloid markers of maternal blood cells were analyzed by the following combination of monoclonal antibodies: anti-CD15-FITC (Dako, Glostrup Denmark), anti-CD33-PE (BD Bioscience, Palo Alto, Calif.), anti-CD45-PerCP (BD Bioscience, Palo Alto, Calif.) and anti-CD14-APC (Caltag, Burlingame, Calif.). Corresponding MFI values reflected the amount of receptor on the surface of granulocytes and monocytes. Expanded CD34+ cells were analyzed by 4-color flow cytometry with FITC-conjugated anti-CD15 and PE-conjugated anti-CD33, PerCP-conjugated anti-CD34, and APC-conjugated anti-CD38 (all antibodies purchased from BD Bioscience, Palo Alto, Calif.) using a FACSCalibur with CellQuest software (BD Bioscience, Palo Alto, Calif.). Relevant isotype control antibodies were used to detect non-specific background fluorescence. The total number of expanded cells for each lineage was calculated by multiplying their relative proportions by the number of viable cells in each culture.
PBAN (a negative control insect peptide) [Nijholt (2003) id ibid.] were also used for cell expansion. […] […] At 3-day intervals, cultures were supplemented with the same growth factor(s) and cells were counted by trypan blue exclusion and diluted to maintain cultures at concentrations no higher then 100,000 cells/mL [Pick M. et al. (2002) Exp. Hematol. 30:1079]. Cultured cells were injected into NOD/SCID mice at a concentration of 100,000 or 200,000 together with 100,000 unexpanded CD34+ cells per mouse as indicated.
Peptide controls (ASP40 and PBAN) were used to explore the specificity of this response.

[1] = Table 4b, cortisol (1.2 nM), day 14

C[C@]12CCC(=O)C=C1CC[C@@H]1[C@@H]2[C@@H](O)C[C@@]2(C)[C@H]1CC[C@]2(O)C(=O)CO [Cortisol, cortisol]
total number of cells (CD34+ cells, 2-week incubation, versus control): not
Cell expansion index (Table 4a, cultured CD34+ cells, cortisol 1.2 μM, viable cells/ml at day 14 divided by seeded cells (50,000)): 1.55 ± 0.07
Cell expansion index (Table 4b, typical CD34+ culture, cortisol (1.2 nM), day 14): 1.6
CD33+ CD15+ Granulocytes [1]: 28.5 cell counts × 10^3
CD33+ CD15− Immature myeloids [1]: 13.0 cell counts × 10^3
CD33− CD15+ Mature granulocytes [1]: 15.4 cell counts × 10^3
CD34+ CD33+ Committed myeloids [1]: 10.6 cell counts × 10^3
CD34+ CD38+ Committed progenitors [1]: 11.0 cell counts × 10^3

— patent publication US7838493B2, “Acetylcholinesterase (ACHE)-derived peptide as an inducer of granulocytopoiesis, uses and methods thereof” (priority 2004, dated 2010)
